Source: patent US20200270309A1, “MALEIMIDE GROUP-MODIFIED ANGIOGENESIS INHIBITOR HM-1 AND USE THEREOF” (NANJING ANJI BIOLOGICAL TECHNOLOGY CO., LTD, priority 2017, published 2020)
Marks after values point to notes of the source that are not given here. Peptide text beside a SMILES is read from it. * marks the point of attachment. X60 = O=C1C=CC(=O)N1c1ccccc1CCCCCCCCCC(=O)*

Tests used:
[1] = test system: corneal neovascularization; experiment: Corneal neovascularization induced by alkali burn in BALB/c mice; type: in vivo; set-up: Inhibition rate (corneal neovascularization): concentration or dose not given beside the values; conditions: day 14 after alkali burn, vitreous injection once a day for 1 week
[2] = test system: human retinal capillary endothelial cells (HRCECs); experiment: MTT proliferation inhibition on HRCECs; type: cell-based; conditions: 48 h; for A570 nm-A630 nm: mean±SD
Protocol: An MTT method was used to detect the inhibitory activity of the angiogenesis inhibitor polypeptide on proliferation of HRCECs. HRCECs were digested and collected with trypsin after being cultured in an incubator at 37° C. with 5% CO2 to a density of 90% or more. The cells were resuspended with a culture solution and counted under a microscope, the cell concentration was adjusted to 3.0×10^4 cells/mL, and the cell suspension was inoculated into a 96-well plate at 100 μL/well, and cultured overnight in an incubator at 37° C. with 5% CO2. After the cells were completely adhered to the wall, cells with the addition of the angiogenesis inhibitor polypeptide were used as administration groups, cells with the addition of Avastin were used as a positive control group, and cells with the addition of culture solution without any drugs were used as a blank control group. The cells were diluted to respective predetermined concentrations with the culture solution. The diluent were added into 96-well plates respectively at 100 μL per well, and the cells were cultured at 37° C. for 48 h in an incubator with 5% CO2. 20 μL of 5 mg/mL MTT was added into each well of the 96-well plate, and the cultivation was continued for 4 h. The culture medium was removed, and 100 μL of DMSO was added to each well for dissolution. The absorbance was measured at a detection wavelength of 570 nm and a reference wavelength of 630 nm using a microplate reader, and the PIR was calculated by the formula as follows:
PIR (%)=1−administration group/negative group
The experiment was repeated independently three times. The results were expressed as mean±SD, and statistical T test was conducted. *P<0.05 indicates significant difference, and **P<0.01 indicates extremely significant difference.

[3] = test system: collagen-induced arthritis; experiment: Mouse collagen-induced arthritis (CIA) animal model; type: in vivo; conditions: DBA/1 mice CIA model, dose 4.0 mg/kg, subcutaneous from day 30, n=10
[4] = test system: xylene-induced ear swelling; experiment: Xylene-induced mouse ear swelling; type: in vivo; conditions: Kunming mice, injected once a day for 5 days; for Inhibition rate (%): xylene-induced ear swelling
Protocol: Kunming mice were taken, a normal saline group was taken as a blank control group, an aspirin group (200 mg/kg) was taken as a positive control group, and X1-X90 administration groups were taken as test groups. The mice were injected once a day for 5 consecutive days. The blank control group was given an equal volume of normal saline. One hour after the last administration, 0.05 mL of xylene was applied to both sides of the right ear of each mouse to cause inflammation, while no drug was applied to the left ear as a normal ear. Two hours later, the mice were put to death by dislocation. Two ears were cut along the auricle. Ear pieces were taken with a puncher and weighed, and the swelling degree and the swelling rate were calculated. Swelling degree=right ear piece weight-left ear piece weight, swelling rate=(swelling degree/left ear piece weight)*100%. Statistical t-test was conducted on the experimental results. *P<0.05 indicates significant difference, and **P<0.01 indicates extremely significant difference.

[5] = test system: HUVECs; experiment: Transwell migration inhibition on HUVECs; type: cell-based, human; conditions: HUVEC migration vs blank control
[6] = test system: carrageenan-induced toe swelling; experiment: Carrageenan-induced toe swelling in rats; type: in vivo; conditions: SD rats; for Swelling degree 1 h: 1 h after carrageenan; for Swelling degree 3 h: 3 h after carrageenan; for Swelling degree 5 h: 5 h after carrageenan; for Swelling degree 7 h: 7 h after carrageenan
Protocol: The rats were injected once a day, and the model group was given the same volume of normal saline for 3 d and fed normally. […] The foot swelling degree was calculated according to the following formula: foot swelling degree (mL)=foot volume after inflammation-foot volume before inflammation. The number of milliliters of overflow liquid was recorded (method: a ballpoint pen is used to circle the protruding point of the right joint as a measurement mark, and the right hind feet of each rat are sequentially placed into the volume measurer, so that the hind limbs are exposed outside the barrel, and the immersion depth is at the coincidence of the circle and the liquid level. After the foot enters the liquid, the liquid level rises, and the volume of overflow liquid is the volume of the right hind foot of the rat, and the normal volume of the right hind foot of each rat is measured in sequence).

[7] = Half-lives and pharmacokinetic parameters of polypeptides vs HM-1; conditions: in vivo
[8] = test system: choroidal neovascularization; experiment: Choroidal neovascularization in rats (laser photocoagulation, FFA); type: in vivo; conditions: BN rats
Protocol: 6-8 weeks male BN rats were fully anesthetized by intraperitoneal injection of 846 compound anesthetic with a concentration of 0.5 mL/kg. Compound tropicamide eye drops were used once 5 min before laser photocoagulation to fully dilate the pupils of both eyes. The animals were fixed and subjected to krypton laser photocoagulation equidistantly around an optic disc with the aid of a −53.00D corneal contact lens at a distance of 2PD from the optic disc. A total of 8 photocoagulation spots were obtained. The laser wavelength was 647.1 nm, the power was 350 mW, and the diameter and time of the photocoagulation spots were 50 μm and 0.05 s respectively. Fundus photography was performed immediately after photocoagulation. FFA, histopathology and transmission electron microscopy were performed on the days 3, 7, 14, 21 and 28 after photocoagulation respectively.
Through fundus photography and FFA examination, it was confirmed that the fluorescein leakage of the photocoagulation spot reached its peak on day 21 after photocoagulation. At the same time, histopathological examination was carried out.
Rats with successful modeling were randomly grouped, with 5 rats in each group. The groups were marked as a negative control group and X1-X90 treatment groups respectively. The rats were injected with normal saline and X1-X90 (the doses of X1-X90 were each 0.05 μM) in the vitreous chamber once a day for 1 week. FFA examination was carried out 3 days, 7 days, 14 days and 28 days after administration.

[9] = day 3 after administration, total light spot number was 297, 0.05 μM in the vitreous chamber once a day for 1 week
[10] = day 7 after administration, total light spot number was 186, 0.05 μM in the vitreous chamber once a day for 1 week
[11] = day 14 after administration, total light spot number was 137, 0.05 μM in the vitreous chamber once a day for 1 week
[12] = day 28 after administration, total light spot number was 69, 0.05 μM in the vitreous chamber once a day for 1 week

AUC(0-inf) [7]: 34000 ± 8190 ng·h/mL
MRT inf [7]: 60.9 ± 9.41 h
clearance [7]: 0.49 mL/min/kg
half-life ([7]; T1/2β (half-life)): 42.24 ± 0.28 h
Structure (SMILES): C[C@H](NC(=O)CNC(=O)[C@H](CCCNC(=N)N)NC(=O)CCCCCCCCCc1ccccc1N1C(=O)C=CC1=O)C(=O)N[C@@H](CC(=O)O)C(=O)N[C@@H](CCCNC(=N)N)C(=O)N[C@@H](C)C(=O)NCC(=O)NCC(=O)NCC(=O)NCC(=O)N[C@@H](CCCNC(=N)N)C(=O)NCC(=O)N[C@@H](CC(=O)O)C(=O)O [X21] (X60-RGADRAGGGGRGD-OH)
Inhibition rate (corneal neovascularization) [1]: 45.93%
MVD (corneal microvessel density) [1]: 36.36 ± 3.663
Inhibition rate (%) ([2]; dose 0.05 μM): 48.85%*
A570 nm-A630 nm ([2]; dose 0.05 μM): 0.6761 ± 0.01737
Inhibition rate (%) ([2]; dose 0.1 μM): 67.15%**
A570 nm-A630 nm ([2]; dose 0.1 μM): 0.4342 ± 0.04189
Inhibition rate (%) ([2]; dose 0.2 μM): 69.16%*
A570 nm-A630 nm ([2]; dose 0.2 μM): 0.4076 ± 0.06848
Joint swelling degree (mm) [3]: 0.81 ± 0.14 mm
Left and right paw swelling degree (mm) [3]: 0.83 ± 0.16 mm
Clinical score ([3]; highest score 16): 8.79 ± 1.43
Swelling degree ([4]; dose 2 mg/kg, right minus left ear piece weight 2 h after xylene): 5.39 ± 0.39 mg
Inhibition rate (%) ([4]; dose 2 mg/kg): 13.48%
Swelling degree (mg) ([4]; dose 4 mg/kg, right minus left ear piece weight 2 h after xylene): 4.97 ± 0.14* mg
Inhibition rate (%) ([4]; dose 4 mg/kg): 20.22%
Swelling degree (mg) ([4]; dose 8 mg/kg, right minus left ear piece weight 2 h after xylene): 3.15 ± 0.42** mg
Inhibition rate (%) ([4]; dose 8 mg/kg): 49.44%
Inhibition rate (%) ([5]; dose 0.05 μM): 48.94%
Inhibition rate (%) ([5]; dose 0.1 μM): 50.61%
Inhibition rate (%) ([5]; dose 0.2 μM): 52.23%
Swelling degree 1 h ([6]; 2.0 mg/kg once a day for 3 d): 0.23 ± 0.19 mg
Swelling degree 3 h ([6]; 2.0 mg/kg once a day for 3 d): 0.32 ± 0.17 mg
Swelling degree 5 h ([6]; 2.0 mg/kg once a day for 3 d): 0.39 ± 0.16 mg
Swelling degree 7 h ([6]; 2.0 mg/kg once a day for 3 d): 0.33 ± 0.12 mg
Swelling degree 1 h ([6]; 4.0 mg/kg once a day for 3 d): 0.25 ± 0.17 mg
Swelling degree 3 h ([6]; 4.0 mg/kg once a day for 3 d): 0.33 ± 0.13 mg
Swelling degree 5 h ([6]; 4.0 mg/kg once a day for 3 d): 0.39 ± 0.14 mg
Swelling degree 7 h ([6]; 4.0 mg/kg once a day for 3 d): 0.35 ± 0.18 mg
CNV Incidence (%) [8, 9]: 50.84%
Leakage Light spot number [8, 9]: 151
CNV Incidence (%) [8, 10]: 47.85%
Leakage Light spot number [8, 10]: 89
CNV Incidence (%) [8, 11]: 46.72%
Leakage Light spot number [8, 11]: 64
CNV Incidence (%) [8, 12]: 40.58%
Leakage Light spot number [8, 12]: 28
